# T1: TYLPWPA peptide (synthetic (phage display))
# T1 chain: TYLPWPA
# Tests used:
# [1] = system: translation of green fluorescent protein (GFP); experiment: coupled in vitro transcription-translation inhibition assay (GFP); type: biochemical, E. coli; details: for inhibition of in vitro protein synthesis: cell-free translation, summary statement; for GFP fluorescence lower compared to DIRTQRE: peptide 1 mM, at 120 min, ex 487 nm; for order of translation inhibition by peptides (from high to low) / inhibitory effect on protein translation: peptides at 1 mM, GFP fluorescence; for inhibitory effect on protein translation: in words
# Procedure: A cell-free translation assay was used to test the potential inhibitory effects of the peptides on protein synthesis. Different concentrations of peptides were added to E. coli S30 extracts and the extent of inhibition was monitored by the measurement of green fluorescent protein (GFP) translation.
# The inhibitory effects of selected peptides (DIRTQRE, CVRPFAL, FVRPFAL, TLWDLIP and TYLPWPA) on cellular processes were determined by in vitro coupled transcription-translation inhibition assay. The PURExpress™ in vitro protein synthesis kit #E6800S from New England Biolabs (Beverly, MA) was used for this purpose. A DNA template for GFP (pRSETEmGFP plasmid, Invitrogen) was employed at a concentration of 10 µg/mL in a 15 µL of reaction volume. Different concentrations of peptides were added, ranging from 300 µM to 2 mM. The DNA template was added only after mixing of the peptides or streptomycin so that they could bind to their target region first. For the control, streptomycin was added at a final concentration of 300 µM. The reaction was incubated in 384-well, Costar, clear-well, black plates and in situ incubated at 37 °C in a Gemini XPS microplate spectrofluorometer (Molecular Devices, Sunnyvale, CA) and the amount of GFP produced was monitored at different time intervals from 0 min to 2 h by fluorescence (excitation at 487 nm, emission at 509 nm).
# [2] = system: GFP-S11-labeled 30S subunits; experiment: ribosome-binding assay on Tentagel beads; design: species or system E. coli; details: for order of binding preference by the 30S subunits (from high to low): fluorescence microscopy, pH 7.3; for fluorescence on beads after 30S binding: peptide on Tentagel beads, 30S subunits overnight at 4 °C, 20 mM HEPES, pH 7.3, 10 mM MgCl2, 100 mM KCl, duplicate
# Procedure: The purpose of this experiment was to determine whether the selected peptides have affinity for bacterial ribosomes. The binding affinities of various peptides could also be compared by this method. Small ribosomal subunits, 30S, labeled with GFP on ribosomal protein S11 were added to peptides covalently attached to Tentagel beads (Figure 4A). […] The peptides were chemically synthesized on Tentagel beads with their N-termini exposed. Increasing concentrations of GFP-tagged 30S subunits were added to the Tentagel-bound peptides and unbound 30S subunits were removed by washing. Relative fluorescence intensity of the 30S subunits bound to the peptides on bead was determined by imaging on a fluorescence microscope, with the assumption that the level of fluorescence on the beads was proportional to the affinity of the ribosome for the peptide sequence.
# Four peptides isolated from the phage-display experiment, […], DIRTQRE, TLWDLIP, and […], were synthesized on Tentagel (Rapp Polymer, Tübingen, Germany) beads using standard Fmoc synthesis. The beads were stored in DMF until use. The beads were then washed three times with 450 μl of water, and three times with 450 μL of the binding buffer B (binding buffer: 20 mM HEPES, pH 7.3, 10 mM MgCl2, 100 mM KCl), using 0.45 μm MWCO Nanosep (Pall Corporation, Ann Arbor, MI). The beads were then centrifuged at 6,000 rpm for 1–2 min.
# Fluorescently labeled 30S subunits were isolated by sucrose gradient centrifugation in 5 mM Mg^2+ [82]. For control experiments, His(6)-EmGFP-S11 was purified using IMAC resin (Bio-Rad, Hercules, CA) and the fluorescence was assayed using beads carrying peptides with ribosomes, beads carrying peptides with His(6)-EmGFP-S11 (no ribosomes) and beads only with ribosomes (no peptides).
# The fluorescent ribosomes were incubated in binding buffer B (20 mM HEPES, pH 7.3, 10 mM MgCl2, 100 mM KCl) at 37 °C for 30 min. Next, 25 pmoles of ribosome solution was added to each peptide, and the mixture was incubated overnight at 4 °C with agitation. Unbound ribosomes were removed by two 450 μL washes with binding buffer B and centrifugation at 6,000 rpm for 1–2 min. The beads were resuspended in 40 μL of binding buffer B for microscope screening and kept on ice until scanning. The beads (20 μL) were spread on microscope slides for scanning (Olympus 1X71 microscope, TH4 100 Olympus lamp, Olympus UCMAD 3 camera, 20× magnification). An average of two pictures were taken per slide, eliminating beads presenting uneven swelling and cracks.
# wild-type modified h31 = experiment: surface plasmon resonance (SPR), modified h31; type: binding, E. coli
# Procedure: Modified h31 was labeled with biotin in order to immobilize the RNA onto a surface and determine the kinetics of peptide binding by surface plasmon resonance (SPR). […] In order to enhance the signal-to-noise ratio, a GFP-protein-fused peptide, TYLPWPA-GFP, was generated and used as the analyte.
# Biotinylated, modified h31 RNA was immobilized onto a streptavidin-coated CM5 chip and differing concentrations of TYLPWPA-GFP (10–100 µM) were injected as the analyte. A range of salt concentrations, detergent levels, pH conditions, and flow rates were tested, since these factors affect the peptide-RNA complex formation (data not shown). The apparent dissociation constants were determined under the following optimized conditions: 10 mM Tris·HCl, 150 mM NaCl, 10 mM MgCl2, 1 mM dithiothreitol (DTT), 0.005% (v/v) P20 at pH 7.5 as the running buffer at a flow rate of 50 μL/min.
# All immobilization and subsequent binding studies were performed using a BIAcore 2000 instrument set at a temperature of 25 °C. Standard dextran surface BIAcore sensorchips (Sensor chip CM5) were purchased from BIAcore (GE Healthcare, Piscataway, NJ). Standard desorb and sanitize routines were performed according to the BIAcore guidelines before docking a new CM5 sensor chip. All buffers were filtered through sterile 0.2 μm nylon membranes (Millipore™) under vacuum. Before derivatizing the flow cells with streptavidin, the CM5 sensor chip was pre-conditioned using three successive 10 μL injections of chip-preparation solution (10 mM NaOH, 500 mM NaCl) at 100 μL/min, followed by a normalization routine using BIAnormalizing solution (40% glycerol). Streptavidin derivatization was performed according to standard procedures.
# Prior to immobilization, the solution of biotinylated RNA in HBS-EP buffer (10 mM HEPES, 3 mM EDTA, 150 mM NaCl, 0.005% P20 at pH 7.4) was renatured by heating to 90 °C for 2 min, cooling gradually to room temperature, and placing on ice. Flow cells were functionalized by injecting 30 μL of RNA at a time using the MANUAL INJECT command at a flow rate of 10 μL/min, until the desired immobilization level was reached. One of the flow cells was used to immobilize RNA, while the adjacent cell remained unmodified to serve as a blank-control for matrix effects. Levels of RNA captured were calculated by subtracting […] for each flow cell. After RNA immobilization, both flow cells were blocked with 100 μL of 1 mg/mL biotin at 5 μL/min.
# For the SPR experiments, the peptides were cloned into plasmid pBacEmGH (Cunningham Lab, to be described elsewhere) under transcriptional regulation of a PBAD promoter. Upon induction with L-arabinose, the resulting construct produces a fusion protein in which the peptide is fused to the N-terminus of EmGFP containing a C-terminus 6 x His affinity tag (PEP-EmGFP-6 x His).
# Peptide samples were prepared by serial dilutions from stock solutions. Dilutions were made in running buffer (10 mM Tris·HCl, 150 mM NaCl, 10 mM MgCl2, 1 mM DTT, 0.005% (v/v) P20 at pH 7.5). All procedures for binding were automated, as optimized methods using repetitive cycles of sample injection and regeneration. Typically, running buffer was injected for ~30 min prior to experiment to establish a stable baseline value. Peptide solutions (200 μL) were injected at a kinetic flow rate of 50 μL/min, using the KINJECT command. All peptide samples were injected from 7 mm plastic vials (BIAcore) that were capped with pierceable plastic-crimp-caps to minimize carry-over and sample evaporation. Samples were injected in order of increasing concentration. The surface was regenerated using 150 μL of 500 mM NaCl. The data were fit to a 1:1 binding Langmuir model using BIAevaluation 3.0 software. […]
# [3] = system: CVRPFAL-GFP (synthetic fusion (expressed by L-arabinose induction)); experiment: SPR; details: m2G966; m5C967 (E. coli numbering); 5' phosphorothioate; SPR: 10 mM Tris-HCl pH 7.5, 150 mM NaCl, 10 mM MgCl2, 1 mM DTT, 0.005% P20, 50 uL/min, streptavidin-coated CM5 chip; CD: 10 mM sodium phosphate pH 7, 100 mM …
# GFP (EmGFP) = experiment: SPR; details: m2G966; m5C967 (E. coli numbering); 5' phosphorothioate; SPR: 10 mM Tris-HCl pH 7.5, 150 mM NaCl, 10 mM MgCl2, 1 mM DTT, 0.005% P20, 50 uL/min, streptavidin-coated CM5 chip; CD: 10 mM sodium phosphate pH 7, 100 mM …
# [4] = system: TLWDLIP-GFP (synthetic fusion (expressed by L-arabinose induction)); experiment: SPR; details: m2G966; m5C967 (E. coli numbering); 5' phosphorothioate; SPR: 10 mM Tris-HCl pH 7.5, 150 mM NaCl, 10 mM MgCl2, 1 mM DTT, 0.005% P20, 50 uL/min, streptavidin-coated CM5 chip; CD: 10 mM sodium phosphate pH 7, 100 mM …
# [5] = system: TYLPWPA-GFP (synthetic fusion (expressed by L-arabinose induction)); experiment: SPR; details: m2G966; m5C967 (E. coli numbering); 5' phosphorothioate; SPR: 10 mM Tris-HCl pH 7.5, 150 mM NaCl, 10 mM MgCl2, 1 mM DTT, 0.005% P20, 50 uL/min, streptavidin-coated CM5 chip; CD: 10 mM sodium phosphate pH 7, 100 mM …
# TYLPWPA peptide [6] = biological target: T1, TYLPWPA peptide; experiment: fluorescence titration (quenching); 10 mM HEPES, 50 mM NaCl, 1 mM Na2EDTA, pH 7.5, 25 C; apparent, 7% signal change; SPR: 10 mM Tris-HCl pH 7.5, 150 mM NaCl, 10 mM MgCl2, 1 mM DTT, 0.005% P20, 50 uL/min, streptavidin-coated CM5 chip; CD: 10 mM sodium phosphate pH 7, 100 mM NaCl, 0.1 mM Na2EDTA, 25 C; fluorescence: 10 mM HEPES pH 7.5, 50 mM NaCl, 1 mM Na2EDTA, 25 C; details: label: 5'-fluorescein; hairpin
# TYLPWPA peptide [7] = biological target: T1, TYLPWPA peptide; experiment: CD titration; 100 mM NaCl, 10 mM sodium phosphate, 0.1 mM Na2EDTA, pH 7.0, 25 C; apparent, poor fit; SPR: 10 mM Tris-HCl pH 7.5, 150 mM NaCl, 10 mM MgCl2, 1 mM DTT, 0.005% P20, 50 uL/min, streptavidin-coated CM5 chip; CD: 10 mM sodium phosphate pH 7, 100 mM NaCl, 0.1 mM Na2EDTA, 25 C; fluorescence: 10 mM HEPES pH 7.5, 50 mM NaCl, 1 mM Na2EDTA, 25 C; details: hairpin
molecule,measurement,setting,value
FVRPFAL [heptapeptide selected against wild-type modified h31],inhibition of in vitro protein synthesis,[1],promising results in the in vitro translation assay
same,GFP fluorescence lower compared to DIRTQRE,[1]; em 509 nm,four
same,order of translation inhibition by peptides (from high to low),[1]; 37 °C,CVRPFAL ≈ FVRPFAL > TLWDLIP > TYLPWPA > DIRTQRE
same,inhibitory effect on protein translation,[1],best inhibitory effects
CVRPFAL [heptapeptide from selection against modified h31 with unmodified h31 counter selection],inhibition of in vitro protein synthesis,[1],inhibit in vitro protein synthesis
same,GFP fluorescence lower compared to DIRTQRE,[1]; em 509 nm,four
same,order of translation inhibition by peptides (from high to low),[1]; 37 °C,CVRPFAL ≈ FVRPFAL > TLWDLIP > TYLPWPA > DIRTQRE
same,inhibitory effect on protein translation,[1],best inhibitory effects
same,order of binding preference by the 30S subunits (from high to low),[2]; Tentagel beads,TYLPWPA > CVRPFAL ≈ TLWDLIP > DIRTQRE
same,fluorescence on beads after 30S binding,[2],Fluorescence is observed
same,binding affinity to modified h31,"wild-type modified h31; in words, comparable to known antibiotics targeting 16S rRNA",high nM
TYLPWPA-GFP,ka (association rate constant),"wild-type modified h31; 1:1 Langmuir, 10 mM Tris·HCl, 150 mM NaCl, 10 mM MgCl2, 1 mM DTT, 0.005% P20, pH 7.5, 50 μL/min, 25 °C, CM5 chip",(1.50 ± 0.02) × 10^2 M^-1s^-1
same,kd (dissociation rate constant),"wild-type modified h31; 1:1 Langmuir, pH 7.5, 150 mM NaCl, 10 mM MgCl2, 50 μL/min, 25 °C, CM5 chip",(4.2 ± 0.04) × 10^-3 s^-1
same,KD (kd/ka),"wild-type modified h31; SPR kinetic analysis, 1:1 Langmuir, pH 7.5, 150 mM NaCl, 10 mM MgCl2, 50 μL/min, 25 °C, TYLPWPA-GFP 10–100 µM",28 ± 1 µM
DIRTQRE [heptapeptide selected against wild-type modified h31],order of translation inhibition by peptides (from high to low),[1]; 37 °C,CVRPFAL ≈ FVRPFAL > TLWDLIP > TYLPWPA > DIRTQRE
same,order of binding preference by the 30S subunits (from high to low),[2]; Tentagel beads,TYLPWPA > CVRPFAL ≈ TLWDLIP > DIRTQRE
same,relative binding affinity to 30S subunits,"[2]; Tentagel beads, quantified fluorescence, of the four peptides tested",lowest relative affinity
same,fluorescence on beads after 30S binding,[2],Fluorescence is observed
"[H]/N=C(/N)N[C@H]1[C@H](O)[C@@H](O)[C@H](O[C@@H]2O[C@@H](C)[C@](O)(C=O)[C@H]2O[C@@H]2O[C@@H](CO)[C@H](O)[C@@H](O)[C@@H]2NC)[C@@H](N/C(N)=N\[H])[C@@H]1O [Streptomycin, streptomycin, reference compound]",inhibition of GFP translation,"[1]; 300 µM, positive control, 37 °C, fluorescence ex 487 nm, em 509 nm",completely inhibited GFP translation
"GUUCGAUGCAACGCGAAC [modified h31 (wild-type), biotinylated]",Kd,[3],0.23 µM
same,Kd,GFP (EmGFP),20 µM
same,Kd,[4],0.33 µM
same,Kd,[5],28 µM
"GUUCGAUGCAACGCGAAC (structured_RNA, m2G966; m5C967 (E. coli numbering); 5' phosphorothioate) [F-h31 (modified h31, fluorescein)]",Kd,TYLPWPA peptide [6],27 ± 4 µM
"GUUCGAUGCAACGCGAAC (structured_RNA, m2G966; m5C967 (E. coli numbering)) [modified h31 (wild-type), unlabeled]",Kd,TYLPWPA peptide [7],28 ± 10 µM

# Reference: article PMC6259748, “Selection of Peptides Targeting Helix 31 of Bacterial 16S Ribosomal RNA by Screening M13 Phage-Display Libraries” (Molecules, 2011)
